The term Ki denotes a dissociation constant, usually derived from enzyme kinetics or from competition with a known ligand. Lower therefore signals tighter binding.

For assay [1], the target named is Carbonic anhydrase 1 (Homo sapiens, UniProt P00915). The assay is described as follows: Esterase Assay. Particulars: pH 7.4; 25 °C. How it is done:
(§1) The enzymatic reaction, in a total volume of 3.0 mL, contained 1.4 mL 0.05 M Tris-SO4 buffer (pH 7.4), 1 mL 3 mM NPA, 0.5 mL H2O and 0.1 mL enzyme solution. A reference measurement was obtained by preparing the same cuvette without enzyme solution. All compounds were tested in triplicate at each concentration used.

Assay [2] deals with Carbonic anhydrase 2 (Homo sapiens, UniProt P00918). The assay can be described thus: Esterase Assay. To be noted: pH 7.4; 25 °C. As for the experimental part:
as §1

Carbonic anhydrase 1, sequence (P00915 whole entry): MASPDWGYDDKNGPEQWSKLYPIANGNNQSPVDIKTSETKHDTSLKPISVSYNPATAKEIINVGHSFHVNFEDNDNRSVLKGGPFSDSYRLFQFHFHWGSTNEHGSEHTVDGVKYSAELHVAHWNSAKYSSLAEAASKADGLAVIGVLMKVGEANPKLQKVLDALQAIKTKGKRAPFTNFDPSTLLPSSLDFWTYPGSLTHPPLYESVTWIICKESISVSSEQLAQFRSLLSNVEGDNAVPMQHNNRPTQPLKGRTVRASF

Regarding `Cc1cccc(N2C(=O)[C@@H](C)S[C@H]2c2ccc(C)s2)n1` [(2S,5R)-5-methyl-3-(6-methylpyridin-2-yl)-2-(5-methylthiophen-2-yl)thiazolidin-4-one], the Ki in assay [1] worked out at 4.43 µM; in assay [2], 0.81 µM.

With `Cc1cccc(N2C(=O)[C@H](C)S[C@H]2c2ccc(C)s2)n1` [(2S,5S)-5-methyl-3-(6-methylpyridin-2-yl)-2-(5-methylthiophen-2-yl)thiazolidin-4-one], the Ki in assay [1] came to 5.58 µM; in assay [2], 0.93 µM.

For `Cc1cccc(N2C(=O)CSC2c2cccs2)n1` (stereo unspecified) [Thiazolidin-based CA inhibitor, 1], the inhibition constant Ki in assay [1] came to 6.8 µM; in assay [2], 1.34 µM.

Consider `Cc1cccc(N2C(=O)CSC2c2sccc2C)n1` (stereo unspecified) [Thiazolidin-based CA inhibitor, 2], for which the inhibition constant Ki in assay [1] worked out at 47.5 µM; in assay [2], 2.48 µM.

As for `Cc1cccc(N2C(=O)CSC2c2ccc(C)s2)n1` (stereo unspecified) [Thiazolidin-based CA inhibitor, 3], the Ki in assay [1] amounted to 5.38 µM; in assay [2] it was 1.36 µM.

Turning to `Cc1cccc(N2C(=O)C(C)SC2c2cccs2)n1` (stereo unspecified) [Thiazolidin-based CA inhibitor, 4], the Ki is 5.51 µM in assay [1] and 1.32 µM in assay [2].

As to `Cc1cccc(N2C(=O)[C@H](C)S[C@H]2c2sccc2C)n1` [Thiazolidin-based CA inhibitor, 5a], the inhibition constant Ki in assay [1] worked out at 27.5 µM; in assay [2], 2.29 µM.

As to `Cc1cccc(N2C(=O)[C@@H](C)S[C@H]2c2sccc2C)n1` [Thiazolidin-based CA inhibitor, 5b], the Ki turned out to be 29.4 µM in assay [1] and 3.59 µM in assay [2].

These data come from BindingDB's records for doi:10.3109/14756366.2012.732071 (Ondokuz Mayis University, 2013).
